Earlier results, collected in patent publication US9034622B2, “Preparation for photodynamic control of microorganisms and use thereof” (priority 2004, dated 2015).

Assays:
[1] = tested on: reperfusion-induced damage or the extent of the myocardial infarct; settings: intravenous glutathione administration; pigs pre-treated with glutathione synthesis inhibitor; ischemia/reperfusion
isolated perfused heart = settings: perfusate enriched with GSH

Q: Which “reperfusion-induced damage or extent of the myocardial infarct” value [1] does the source give for N[C@@H](CCC(=O)N[C@@H](CS)C(=O)NCC(=O)O)C(=O)O [glutathione, Glutathione] here?
A: could be reduced

Q: What about the “recovery of ventricle function after ischemia and reperfusion” value (isolated perfused heart) of the same compound?
A: better recovery of ventricle function
